# From patent publication US12162836B2, “N-acyl-{4-[(4-aryl-phenyl)sulfonylmethyl]piperidine} compounds and their therapeutic use” (Modern Biosciences Limited, priority 2019, dated 2024)
# pIC50: −log10 of the molar value.
# Legend:
# [1] = Rodent Pharmacokinetics Studies; format: in vivo, rat; conditions: male Han Wistar rats; for i.v. AUC: 0.25 mg/kg intravenous; for Bioavail, F: oral vs intravenous; for half-life: rat, plasma
# Excerpt: Absorption and metabolic stability were studied using an in vivo pharmacokinetics assay.
# […] Test compounds were formulated in 0.5% carboxymethylcellulose (CMC)/0.1% Tween-80 for administration via the oral route, or in 5% DMSO/10% solutol in saline for administration via the intravenous route. For compound HMC-C-01-A the oral administration was formulated in 2% dimethylacetamide/20% hydroxypropyl-β-cyclodextrin in water. Animals were given free access to food throughout the study except for fasting overnight and until 2 hours post dose on the day of dosing.
# Blood samples were taken from the retro-orbital plexus at the following time points and placed in microtubes containing 20% K2EDTA solution:
# Oral Dosing: predose; 0.25, 0.5, 1, 2, 4, 6, 8, 12 and 24 hours post dose.
# Blood samples were centrifuged to obtain plasma, which was transferred to a separate container and frozen at −20° C.
# For analysis, samples were thawed at room temperature and prepared by protein precipitation with acetonitrile spiked with internal standard (500 ng/mL glipizide) in the ratio 1:4 with plasma.
# The pharmacokinetic parameters for the test compounds were calculated by Phoenix WinNonlin version 8.0 (Certara, CA) using standard non-compartmental methods. Peak plasma concentrations (Cmax) and time of the peak plasma concentration (Tmax) were the observed values. The area under the plasma concentration-time curve (AUC) was determined by use of the linear trapezoidal rule up to the last measurable concentration (AUClast) and thereafter by extrapolation of the terminal elimination phase to infinity (AUCinf). The elimination phase half-life (t1/2) was calculated as 0.693/kel.
# human hepatocytes = test: Human Hepatocyte Stability; format: in vitro ADME; conditions: for metabolic stability (in words): human hepatocytes
# Procedure: (§1) Metabolic stability of test compounds was measured by determination of the rate of disappearance of the compound when incubated in the presence of human hepatocytes, a primary source of the most important enzymes (cytochrome P450s) involved in drug metabolism. Study of drug stability in the presence of primary hepatocytes is accepted as a valuable model permitting rapid prediction of in vivo drug stability.
# (§2) Human hepatocytes were obtained from a commercial source and viability was assessed using a trypan blue solution prior to use. Test compounds (final concentration 1 μM, 0.1 DMSO, 0.9% acetonitrile) or a marker (diclofenac or diltiazem, final assay concentration 1 μM, 0.1% DMSO, 0.9% acetonitrile) were incubated with pooled hepatocytes for a 60 minute period and samples removed at up to 6 time points and analysed by LC-MS/MS for the presence/amount of test compounds.
# (§3) Each compound was incubated for 0, 5, 15, 30, 45, or 60 minutes. The reactions were stopped by the addition of methanol containing an internal standard (1 μM Tolbutamide) at the appropriate time points, mixed and placed at −20° C. for 1 hour to quench and allow protein to precipitate. All samples were centrifuged (2500× g, 20 minutes, 4° C.). The aliquots were analysed using LC-MS/MS. Reactions were performed in duplicate at 37° C.
# (§4) Data were processed, and the results plotted as In(concentration) vs. time. The elimination rate constant (slope of the regression line, k) was calculated using the following formula, where C(t) is the concentration at time t and C(0) is the starting concentration:
# (§5) The half-life (t1/2) was calculated using the following formula: […]
# (§6) The intrinsic clearance (Clint) was calculated using the following formula, where [cell] is the hepatocyte concentration in the assay: […]
# CYP2D6 = CYP2D6 (Homo sapiens (Human), UniProt P10635); test: Human Cytochrome P450 Inhibition Assay (Bactosomes); format: in vitro ADME; conditions: recombinant Bactosomes, 10 minutes
# Procedure: (§7) The ability of test compounds to inhibit five of the most relevant cytochrome P450 enzymes was measured by determination of the activity of cytochrome P450 enzymes in recombinant cytochrome preparations, called Bactosomes (Cypex Ltd, Dundee, Scotland UK DD2 1 NH), in the presence of a specific probe substrate. Bactosomes are a highly efficient and cost-effective source of recombinant CYP450s which have a higher specific activity of enzyme compared to other sources, such as liver microsomes. […] The following CYP450 isoforms were assayed: CYP1A2, CYP2C9, CYP2C19, CYP2D6 and CYP3A4. The study of CYP450 inhibition potential in Bactosomes is accepted as a valuable model permitting rapid prediction of potential drug-drug interactions in vivo (see, e.g., Weaver et al., 2003).
# (§8) Bactosomes were obtained from a commercial source (Cypex, Scotland, UK). Test compounds were incubated with Bactosomes at 6 concentrations. Samples were incubated for 10 minutes, after which the reaction was stopped and the samples analysed by LC-MS/MS Multiple Reaction Monitoring (MRM) for the presence/amount of substrate probe.
# (§9) CYP450 enzymes (final protein 75 pmol/mL for CYP1A2; 12.5 pmol/mL for CYP2C19; and 25 pmol/mL for CYP2C9, 2D6 and 3A4), 0.1 M phosphate buffer pH 7.4, probe and test compound (final concentration 50, 15.8, 5, 1.58, 0.5 and 0.158 μM; diluted from 10 mM stock solution to give a final DMSO concentration of 1%) were pre-incubated at 37° C. for 5 minutes. The reaction was initiated by the addition of 20 μL of 10 mM NADPH in phosphate buffer. The final incubation volume was 200 μL. The following control inhibitors were used for each CYP450 inhibition assay: CYP1A2: α-naphthoflavone; CYP2C9: sulfaphenazole; CYP2C19: tranylcypromine; CYP2D6: quinidine; CYP3A4: ketoconazole.
# (§10) Each compound was incubated for 10 minutes at 37° C. The reactions were stopped by the addition of methanol (final composition 1:1, aqueous: methanol). The incubation plates were shaken, chilled at […] for 2 hours, and centrifuged at 3500 rpm for 15 minutes at 4° C. to precipitate the protein.
# CYP2C9 = CYP2C9 (Homo sapiens (Human), UniProt P11712); test: as above; format: in vitro ADME; conditions: recombinant Bactosomes, 10 minutes
# Procedure: as §7, §8, §9, §10
# CYP2C19 = CYP2C19 (Homo sapiens (Human), UniProt P33261); test: as above; format: in vitro ADME; conditions: recombinant Bactosomes, 10 minutes
# Procedure: as §7, §8, §9, §10
# CYP3A4 = CYP3A4 (Homo sapiens (Human), UniProt P08684); test: as above; format: in vitro ADME; conditions: recombinant Bactosomes, 10 minutes
# Procedure: as §7, §8, §9, §10
# CYP1A2 = CYP1A2 (Homo sapiens (Human), UniProt P05177); test: as above; format: in vitro ADME; conditions: recombinant enzyme
# Procedure: as §7, §8, §9, §10
# [2] = Human Hepatocyte Stability; format: in vitro ADME; conditions: pooled human hepatocytes, 1 μM, 60 minute incubation; for half-life at 1 μM: read-out: Human t1/2
# Procedure: as §1, §2, §3, §4, §5, §6
# [3] = pooled human hepatocytes, 1 μM, 60 minute incubation
# Chain of CYP2D6 (P10635 whole entry, canonical isoform): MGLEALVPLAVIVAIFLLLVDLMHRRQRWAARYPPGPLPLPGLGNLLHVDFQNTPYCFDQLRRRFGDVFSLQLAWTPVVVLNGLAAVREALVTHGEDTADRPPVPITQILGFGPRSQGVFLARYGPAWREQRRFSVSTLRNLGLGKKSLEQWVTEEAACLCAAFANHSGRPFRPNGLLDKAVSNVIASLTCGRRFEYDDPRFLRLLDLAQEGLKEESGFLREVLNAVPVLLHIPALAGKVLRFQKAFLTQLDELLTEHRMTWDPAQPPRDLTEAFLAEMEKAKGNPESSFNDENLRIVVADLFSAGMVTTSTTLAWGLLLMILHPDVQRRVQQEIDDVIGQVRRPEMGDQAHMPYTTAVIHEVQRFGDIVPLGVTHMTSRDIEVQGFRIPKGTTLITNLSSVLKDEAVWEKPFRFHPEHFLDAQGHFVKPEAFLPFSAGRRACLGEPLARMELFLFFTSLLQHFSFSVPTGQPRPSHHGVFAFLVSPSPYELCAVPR
# Chain of CYP2C9 (P11712 whole entry): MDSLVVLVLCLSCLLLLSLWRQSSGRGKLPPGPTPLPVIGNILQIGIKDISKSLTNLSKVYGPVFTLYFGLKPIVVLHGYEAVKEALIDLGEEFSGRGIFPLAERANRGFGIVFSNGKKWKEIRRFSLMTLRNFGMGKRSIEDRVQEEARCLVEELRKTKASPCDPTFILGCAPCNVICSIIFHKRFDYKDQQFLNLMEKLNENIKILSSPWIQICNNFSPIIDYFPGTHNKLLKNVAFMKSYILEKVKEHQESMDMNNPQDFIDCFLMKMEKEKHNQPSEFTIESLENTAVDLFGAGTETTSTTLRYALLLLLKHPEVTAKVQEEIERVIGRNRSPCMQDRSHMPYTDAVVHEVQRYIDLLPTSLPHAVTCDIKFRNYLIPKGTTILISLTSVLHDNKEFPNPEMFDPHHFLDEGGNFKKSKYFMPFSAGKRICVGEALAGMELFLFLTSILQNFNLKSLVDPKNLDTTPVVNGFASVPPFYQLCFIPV
# Chain of CYP1A2 (P05177 whole entry): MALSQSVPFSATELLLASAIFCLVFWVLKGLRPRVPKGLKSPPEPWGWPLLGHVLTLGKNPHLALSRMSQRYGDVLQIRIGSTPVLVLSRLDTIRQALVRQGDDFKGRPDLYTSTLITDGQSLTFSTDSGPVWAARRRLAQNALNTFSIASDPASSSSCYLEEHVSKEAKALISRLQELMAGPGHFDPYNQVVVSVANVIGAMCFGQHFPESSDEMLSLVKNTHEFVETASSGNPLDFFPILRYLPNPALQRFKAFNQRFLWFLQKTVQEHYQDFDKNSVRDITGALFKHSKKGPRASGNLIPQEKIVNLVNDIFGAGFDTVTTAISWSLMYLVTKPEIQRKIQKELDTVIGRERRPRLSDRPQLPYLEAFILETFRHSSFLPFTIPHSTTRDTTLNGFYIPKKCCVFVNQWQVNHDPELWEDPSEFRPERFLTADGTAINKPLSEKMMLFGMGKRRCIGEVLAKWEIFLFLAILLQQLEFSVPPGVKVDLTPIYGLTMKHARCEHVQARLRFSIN
# Chain of CYP2C19 (P33261 whole entry): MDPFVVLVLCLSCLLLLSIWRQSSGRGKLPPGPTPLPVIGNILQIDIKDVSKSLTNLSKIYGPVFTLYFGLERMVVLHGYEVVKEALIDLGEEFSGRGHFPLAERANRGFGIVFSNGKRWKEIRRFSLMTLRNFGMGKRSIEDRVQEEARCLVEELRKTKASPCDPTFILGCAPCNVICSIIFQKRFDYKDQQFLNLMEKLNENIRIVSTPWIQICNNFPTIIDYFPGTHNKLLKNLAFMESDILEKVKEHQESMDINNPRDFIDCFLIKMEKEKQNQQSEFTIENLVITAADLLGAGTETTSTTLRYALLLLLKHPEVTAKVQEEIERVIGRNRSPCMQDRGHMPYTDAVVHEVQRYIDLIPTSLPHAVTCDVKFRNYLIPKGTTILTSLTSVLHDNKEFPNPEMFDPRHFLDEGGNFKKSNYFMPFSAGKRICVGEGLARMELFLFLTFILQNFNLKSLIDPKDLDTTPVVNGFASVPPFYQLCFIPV
# Chain of CYP3A4 (P08684 whole entry): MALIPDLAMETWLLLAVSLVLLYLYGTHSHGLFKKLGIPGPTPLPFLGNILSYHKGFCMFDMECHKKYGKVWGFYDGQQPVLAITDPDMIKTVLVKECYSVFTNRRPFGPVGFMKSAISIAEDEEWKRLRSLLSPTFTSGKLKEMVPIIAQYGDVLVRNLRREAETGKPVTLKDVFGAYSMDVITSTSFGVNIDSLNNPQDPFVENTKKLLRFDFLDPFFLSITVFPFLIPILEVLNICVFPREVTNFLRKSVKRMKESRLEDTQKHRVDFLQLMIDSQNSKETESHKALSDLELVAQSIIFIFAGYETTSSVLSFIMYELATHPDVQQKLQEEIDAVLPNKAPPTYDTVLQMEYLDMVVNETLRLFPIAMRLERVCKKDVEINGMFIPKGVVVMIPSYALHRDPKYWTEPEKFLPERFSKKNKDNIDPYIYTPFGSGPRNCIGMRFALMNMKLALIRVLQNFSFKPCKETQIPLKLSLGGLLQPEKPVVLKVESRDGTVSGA
Structure (SMILES),i.v. AUC [1],"Bioavail, F [1]",pIC50 (CYP2D6),pIC50 (CYP2C9),pIC50 (CYP2C19),pIC50 (CYP3A4),p.o. AUC ([1]; 1.25 mg/kg orally),half-life [1],hepatocyte CLint at 1 μM [2],half-life at 1 μM [2],metabolic stability (in words) (human hepatocytes),"pIC50 (CYP1A2; human, 10 min, pH 7.4)",T1/2 [1],p.o. AUC ([1]; dosed at 5 mg/kg orally),Human Clint (human hepatocytes; [3]),Human t1/2 (human hepatocytes; [3]),pIC50 (CYP1A2)
"CC1(O)CCC(NS(=O)(=O)c2ccc(-c3ccc(F)cc3F)cc2)CC1 (stereo not shown) [ABD899, reference compound]",2133 ng/mL/min,50%,4.34,5.41,5.14,4.67,–,–,–,–,–,–,10.8 h,10740 ^(4) ng/mL/min,9 uL/min/million cells,2.48 h,< 4.60
"CC(=O)N1CCC(CS(=O)(=O)c2ccc(-c3ccc(F)cc3F)cc2)CC1 [NASMP-01, 1-(4-(((2′,4′-Difluoro-[1,1′-biphenyl]-4-yl)sulfonyl)methyl)piperidin-1-yl)ethan-1-one]",816 ng/mL/min,56%,< 4.30,< 4.30,< 4.30,< 4.30,2299 ng/mL/min,6.6 h,< 3 µL/min/1e6 cells,> 7.67 h,exceptionally good stability,< 4.30,–,–,–,–,–
"CC(=O)N1CCC(CS(=O)(=O)c2ccc(-c3c(F)cccc3F)cc2)CC1 [NASMP-09, 1-(4-(((2′,6′-Difluoro-[1,1′-biphenyl]-4-yl)sulfonyl)methyl)piperidin-1-yl)ethan-1-one]",–,–,< 4.30,< 4.30,4.75,4.35,–,–,< 3.4 µL/min/1e6 cells,> 6.88 h,exceptionally good stability,< 4.30,–,–,–,–,–
"CCC(=O)N1CCC(CS(=O)(=O)c2ccc(-c3ccc(F)cc3F)cc2)CC1 [NASMP-15, 1-(4-(((2′,4′-Difluoro-[1,1′-biphenyl]-4-yl)sulfonyl)methyl)piperidin-1-yl)propan-1-one]",282 ng/mL/min,>62%,< 4.30,4.67,< 4.30,< 4.30,1750 ng/mL/min,4.9 h,–,> 1 h,exceptionally good stability,< 4.30,–,–,–,–,–

# The next lines start with results.
i.v. AUC [1],"Bioavail, F [1]",pIC50 (CYP2D6),pIC50 (CYP2C9),pIC50 (CYP2C19),pIC50 (CYP3A4),p.o. AUC ([1]; 1.25 mg/kg orally),half-life [1],hepatocyte CLint at 1 μM [2],half-life at 1 μM [2],metabolic stability (in words) (human hepatocytes),"pIC50 (CYP1A2; human, 10 min, pH 7.4)",Structure (SMILES),T1/2 [1],p.o. AUC ([1]; dosed at 5 mg/kg orally),Human Clint (human hepatocytes; [3]),Human t1/2 (human hepatocytes; [3]),pIC50 (CYP1A2)
–,–,< 4.30,< 4.30,< 4.30,< 4.30,–,–,–,–,exceptionally good stability,< 4.30,"CC(=O)N1CCC(CS(=O)(=O)c2ccc(-c3ccc(C#N)cc3Cl)cc2)CC1 [NASMP-05, 4′-(((1-Acetylpiperidin-4-yl)methyl)sulfonyl)-2-chloro-[1,1′-biphenyl]-4-carbonitrile]",–,–,–,–,–
349 ng/mL/min,24%,< 4.30,4.37,< 4.30,< 4.30,3030 ng/mL/min,3.3 h,–,> 1 h,exceptionally good stability,< 4.30,"CC(=O)N1CCC(CS(=O)(=O)c2ccc(-c3ccc(Cl)cc3C#N)cc2)CC1 [NASMP-06, 4′-(((1-Acetylpiperidin-4-yl)methyl)sulfonyl)-4-chloro-[1,1′-biphenyl]-2-carbonitrile]",–,–,–,–,–
–,–,< 4.30,4.71,4.44,< 4.30,–,–,1.1 µL/min/1e6 cells,> 1 h,–,< 4.30,"CC(=O)N1CCC(CS(=O)(=O)c2ccc(-c3ccc(C(F)(F)F)cc3F)cc2)CC1 [NASMP-07, 1-(4-(((2′-Fluoro-4′-(trifluoromethyl)-[1,1′-biphenyl]-4-yl)sulfonyl)methyl)piperidin-1-yl)ethan-1-one]",–,–,–,–,–
581 ng/mL/min,>69%,4.34,4.81,< 4.30,< 4.30,3160 ng/mL/min,5.1 h,–,–,exceptionally good stability,< 4.30,"CC(=O)N1CCC(CS(=O)(=O)c2ccc(-c3ccc(F)cc3F)cc2C(F)(F)F)CC1 [NASMP-12, 1-(4-(((2′,4′-Difluoro-3-(trifluoromethyl)-[1,1′-biphenyl]-4-yl)sulfonyl)methyl)piperidin-1-yl)ethan-1-one]",–,–,–,–,–
